One assay concerns the target T1, rM4 receptors (Rattus norvegicus, UniProt P08485).
T1 construct: expressed in transfected cells; host or cells: CHO cells
T1 sequence (P08485 1-478): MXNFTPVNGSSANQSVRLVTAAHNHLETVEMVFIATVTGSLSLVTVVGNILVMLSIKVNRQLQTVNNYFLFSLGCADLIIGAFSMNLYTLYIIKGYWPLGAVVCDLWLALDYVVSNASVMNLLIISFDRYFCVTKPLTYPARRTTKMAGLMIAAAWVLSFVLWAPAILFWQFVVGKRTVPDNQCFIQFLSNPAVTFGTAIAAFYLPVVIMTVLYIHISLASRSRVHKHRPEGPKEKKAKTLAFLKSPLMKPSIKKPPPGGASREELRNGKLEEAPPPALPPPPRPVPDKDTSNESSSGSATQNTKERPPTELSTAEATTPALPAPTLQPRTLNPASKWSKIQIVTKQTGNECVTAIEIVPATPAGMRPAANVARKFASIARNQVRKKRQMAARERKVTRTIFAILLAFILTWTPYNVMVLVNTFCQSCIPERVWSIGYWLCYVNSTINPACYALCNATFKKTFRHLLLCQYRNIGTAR
Put plainly: Rat M4 PAM PERK assay (CHO cells, TR-FRET, with EC20 acetylcholine). It counts as cell-based. How it is done: (§1) Chinese hamster ovary (CHO) cells expressing either hM4 or rM4 receptors were frozen in assay ready vials (5×10^6 cells/vial) after bulking-up in culture. The day before an assay, vial(s) were thawed and cells seeded in 384 well white proxiplates at 1000/well for hM4 cells and at 2000/well for rM4 cells, in 10 μL of growth media (Hams/F12 with glutamax and 10% FCS) and incubated overnight at 37° C./5% CO2.
(§2) On the following morning, the growth media was removed by ‘flicking out’ over a bin, patting the inverted plate onto tissue, and then replacing with 10 μL of wash media (Hams/F12 with glutamax and 8 mM HEPES, NB: serum free). Then, the wash media was removed in the same way and replaced with 8 μL/well of the serum free media. Plates were then re-incubated for a further 4 hours at 37° C./5% CO2.
(§3) Compounds for testing were solubilized to 10 mM in DMSO and compound addition plates, consisting of ten-point concentration response curves (CRC) in duplicate points (10 μM top concentration, ½ log dilution series), were prepared by acoustic dispensing and the compound management group.
(§4) After the 4-hour incubation in serum free media, a 4 μL aliquot of the 3×compound solution containing an EC20 of acetylcholine (10 nM final concentration) was added to the cell plate using a 384 well plate to plate transfer. Then, the plate lid was replaced, and the cells incubated for 5 mins at 37° C./5% CO2. Following this final incubation, all cellular processes were stopped by the addition of 4 μL/well of lysis and blocking buffer and plates were incubated for 30 minutes at RT on an orbital shaker (gentle setting). Then, a final addition of 4 μL/well of antibody detection mix, containing both the Europium-Cryptate (donor) and d2 (acceptor) tagged detection components, was added followed by a further 2-hour incubation at RT, and then the plate was read using a TR-FRET (time resolved fluorescence resonance energy transfer) based protocol.

The target in another assay is T2, hM4 receptors (Homo sapiens, UniProt P08173).
T2 construct: expressed in transfected cells; host or cells: CHO cells
T2 sequence (P08173 1-479): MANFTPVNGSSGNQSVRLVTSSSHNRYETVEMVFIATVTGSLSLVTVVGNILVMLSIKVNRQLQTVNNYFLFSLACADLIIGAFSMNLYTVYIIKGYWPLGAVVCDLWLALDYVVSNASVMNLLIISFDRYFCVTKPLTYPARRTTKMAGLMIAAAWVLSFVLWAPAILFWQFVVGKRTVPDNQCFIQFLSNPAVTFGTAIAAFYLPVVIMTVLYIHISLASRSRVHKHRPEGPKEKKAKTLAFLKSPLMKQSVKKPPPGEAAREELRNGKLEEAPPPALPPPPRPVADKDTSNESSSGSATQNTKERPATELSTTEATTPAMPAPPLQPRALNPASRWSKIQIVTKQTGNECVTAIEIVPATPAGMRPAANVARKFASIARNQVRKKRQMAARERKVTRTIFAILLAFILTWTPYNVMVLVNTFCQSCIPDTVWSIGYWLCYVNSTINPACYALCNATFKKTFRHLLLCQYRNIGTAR
Description: Human M4 PAM PERK assay (CHO cells, TR-FRET, with EC20 acetylcholine). It counts as cell-based. How it is done:
as §1, §2, §3, §4
(In general: In TR-FRET formats the signal depends on donor and acceptor labels being close together.)

SMILES strings stand for the structures.

In the case of `Cc1cc(=O)n(C)c2c1C(C)N(C(=O)CC1CN(c3ccnc(C(F)(F)F)c3)C1)C2` (racemic) [Compound I-113, (±)-1,4,5-Trimethyl-6-(2-(1-(2-(trifluoromethyl)pyridin-4-yl)azetidin-3-yl)acetyl)-1,5,6,7-tetrahydro-2H-pyrrolo[3,4-b]pyridin-2-one], the EC50 at rM4 receptors and at hM4 receptors was greater than 1000 nM throughout.

As to `Cc1c2c(n(C)c(=O)c1Cl)CN(C(=O)C(C)C1CN(c3ccnc(C(F)(F)F)c3)C1)C2` (single isomer, unassigned) [Compound I-83, 3-Chloro-1,4-dimethyl-6-(2-(1-(2-(trifluoromethyl)pyridin-4-yl)azetidin-3-yl)propanoyl)-1,5,6,7-tetrahydro-2H-pyrrolo[3,4-b]pyridin-2-one], the EC50 on rM4 receptors and at hM4 receptors was greater than 1000 nM each time.

In the case of `Cc1cc(=O)n(C)c2c1CN(C(=O)CC1CN(c3ccnc(C(F)(F)F)c3)C1)C2` [Compound I-1, 1,4-Dimethyl-6-(2-(1-(2-(trifluoromethyl)pyridin-4-yl)azetidin-3-yl)acetyl)-1,5,6,7-tetrahydro-2H-pyrrolo[3,4-b]pyridin-2-one], the EC50 (in general, the concentration needed to bring the measured effect to its halfway point) is 200 to 1000 nM on rM4 receptors and less than 50 nM at hM4 receptors.

On to `Cc1cc(=O)n(C)c2c1CN(C(=O)CC1CN(c3ccc(S(C)(=O)=O)cc3)C1)C2` [Compound I-2, 1,4-Dimethyl-6-(2-(1-(4-(methylsulfonyl)phenyl)azetidin-3-yl)acetyl)-1,5,6,7-tetrahydro-2H-pyrrolo[3,4-b]pyridin-2-one], for which the results for the EC50 on rM4 receptors and at hM4 receptors were greater than 1000 nM and 50 to 200 nM, respectively.

As for `Cc1cc(=O)n(C)c2c1CN(C(=O)CC1CN(c3ccc(C(F)(F)F)cc3)C1)C2` [Compound I-5], the EC50 at rM4 receptors was greater than 1000 nM; on hM4 receptors, less than 50 nM.

Regarding `Cc1cc(=O)n(C)c2c1CN(C(=O)CC1CN(c3ccncn3)C1)C2` [Compound I-6], the EC50 on rM4 receptors and at hM4 receptors was 200 to 1000 nM each time.

As for `Cc1cc(=O)n(C)c2c1CN(C(=O)CC1CN(c3ccccn3)C1)C2` [Compound I-9], the results for the EC50 on rM4 receptors and at hM4 receptors were 200 to 1000 nM and less than 50 nM, respectively.

Regarding `COc1cncc(N2CC(CC(=O)N3Cc4c(C)cc(=O)n(C)c4C3)C2)c1` [Compound I-15], the EC50 is 200 to 1000 nM at rM4 receptors and less than 50 nM on hM4 receptors.

Turning to `Cc1cc(=O)n(C)c2c1CN(C(=O)CC1CN(c3ccc(F)c(F)c3)C1)C2` [Compound I-32], the EC50 on rM4 receptors was in the range of 200 to 1000 nM; at hM4 receptors, 50 to 200 nM.

`Cc1cc(=O)n(C)c2c1CN(C(=O)CC1CN(c3cnnc(C4CC4)c3)C1)C2` [Compound I-38, 6-(2-(1-(6-Cyclopropylpyridazin-4-yl)azetidin-3-yl)acetyl)-1,4-dimethyl-1,5,6,7-tetrahydro-2H-pyrrolo[3,4-b]pyridin-2-one]: the EC50 on rM4 receptors is 200 to 1000 nM; at hM4 receptors it was 50 to 200 nM.

Turning to `Cc1cc(=O)n(C)c2c1CN(C(=O)CC1CN(c3cc(C4CC4)c(C#N)c(C(F)(F)F)c3)C1)C2` [Compound I-40, 2-Cyclopropyl-4-(3-(2-(1,4-dimethyl-2-oxo-1,2,5,7-tetrahydro-6H-pyrrolo[3,4-b]pyridin-6-yl)-2-oxoethyl)azetidin-1-yl)-6-(trifluoromethyl)benzonitrile], the EC50 at rM4 receptors and at hM4 receptors was 200 to 1000 nM each time.

Turning to `COc1cccc(N2CC(CC(=O)N3Cc4c(C)c(C)c(=O)n(C)c4C3)C2)c1` [Compound I-47], the EC50 at rM4 receptors fell in the range of 200 to 1000 nM; on hM4 receptors it was 50 to 200 nM.

In the case of `Cc1c2c(n(C)c(=O)c1C)CN(C(=O)CC1CN(c3cccc(F)c3F)C1)C2` [Compound I-48], the EC50 on rM4 receptors was 50 to 200 nM; at hM4 receptors it was less than 50 nM.

On to `Cc1c2c(n(C)c(=O)c1C)CN(C(=O)CC1CN(c3ccc(F)c(C(F)(F)F)c3)C1)C2` [Compound I-49], for which the EC50 at rM4 receptors and at hM4 receptors was 50 to 200 nM each time.

With `Cc1c2c(n(C)c(=O)c1C)CN(C(=O)CC1CN(c3cnc(C(F)(F)F)cn3)C1)C2` [Compound I-50], the EC50 at rM4 receptors fell in the range of 50 to 200 nM; on hM4 receptors it was 200 to 1000 nM.

As to `Cc1c2c(n(C)c(=O)c1C)CN(C(=O)CC1CN(c3ccc(OC(F)(F)F)cc3)C1)C2` [Compound I-52], the EC50 on rM4 receptors and at hM4 receptors was 50 to 200 nM in each case.

On to `Cc1c2c(n(C)c(=O)c1C)CN(C(=O)CC1CN(c3ccc(C4CC4)c(F)c3)C1)C2` [Compound I-53], for which the EC50 on rM4 receptors is 50 to 200 nM; at hM4 receptors it was less than 50 nM.

On to `COc1cc(N2CC(CC(=O)N3Cc4c(C)c(C)c(=O)n(C)c4C3)C2)cc(C(F)(F)F)n1` [Compound I-54], for which the EC50 at rM4 receptors and on hM4 receptors was 200 to 1000 nM in each case.

For the compound `Cc1c2c(n(C)c(=O)c1C)CN(C(=O)CC1CN(c3ccc(CC(C)(C)O)c(F)c3)C1)C2` [Compound I-57], the EC50 is 50 to 200 nM on rM4 receptors and less than 50 nM at hM4 receptors.

Consider `Cc1c2c(n(C)c(=O)c1C)CN(C(=O)CC1CN(c3ccc(C4CC4)c(F)c3)C1C)C2` (centres unmarked) [Compound I-60, 6-(2-(1-(4-Cyclopropyl-3-fluorophenyl)-2-methylazetidin-3-yl)acetyl)-1,3,4-trimethyl-1,5,6,7-tetrahydro-2H-pyrrolo[3,4-b]pyridin-2-one], for which the EC50 at rM4 receptors and at hM4 receptors was less than 50 nM each time.

Consider `Cc1c2c(n(C)c(=O)c1Cl)CN(C(=O)CC1CN(c3cccnc3)C1)C2` [Compound I-67], for which the EC50 at rM4 receptors was 50 to 200 nM; on hM4 receptors, less than 50 nM.

In the case of `Cc1c2c(n(C)c(=O)c1Cl)CN(C(=O)CC1CN(c3cncnc3)C1)C2` [Compound I-69], the EC50 was 50 to 200 nM at rM4 receptors and less than 50 nM on hM4 receptors.

In the case of `Cc1c2c(n(C)c(=O)c1Cl)CN(C(=O)CC1CN(c3ccncn3)C1)C2` [Compound I-70], the concentration giving a half-maximal response (EC50) was 200 to 1000 nM on rM4 receptors and less than 50 nM on hM4 receptors.

With `Cc1c2c(n(C)c(=O)c1Cl)CN(C(=O)CC1CN(c3ccccc3)C1)C2` [Compound I-71], the EC50 at rM4 receptors was 200 to 1000 nM; on hM4 receptors it was less than 50 nM.

For the compound `Cc1c2c(n(C)c(=O)c1Cl)CN(C(=O)CC1CN(c3cnccn3)C1)C2` [Compound I-72], the EC50 was 50 to 200 nM on rM4 receptors and less than 50 nM on hM4 receptors.

As to `Cc1c2c(n(C)c(=O)c1Cl)CN(C(=O)CC1CN(c3cccc(C(F)(F)F)c3)C1)C2` [Compound I-73], the values for the EC50 on rM4 receptors and at hM4 receptors were 50 to 200 nM and less than 50 nM, respectively.

With `Cc1c2c(n(C)c(=O)c1Cl)CN(C(=O)CC1CN(c3ccccc3C(F)(F)F)C1)C2` [Compound I-74], the figures for the EC50 at rM4 receptors and at hM4 receptors were 200 to 1000 nM and 50 to 200 nM, respectively.

Consider `COc1cncc(N2CC(CC(=O)N3Cc4c(C)c(Cl)c(=O)n(C)c4C3)C2)c1` [Compound I-75], for which the EC50 on rM4 receptors is greater than 1000 nM; at hM4 receptors, less than 50 nM.

For `COc1cc(N2CC(CC(=O)N3Cc4c(C)c(Cl)c(=O)n(C)c4C3)C2)ccn1` [Compound I-77], the half-maximal effective concentration (EC50) is 200 to 1000 nM on rM4 receptors and less than 50 nM on hM4 receptors.

Consider `Cc1c2c(n(C)c(=O)c1Cl)CN(C(=O)CC1CN(c3ccnnc3)C1)C2` [Compound I-81, 3-Chloro-1,4-dimethyl-6-(2-(1-(pyridazin-4-yl)azetidin-3-yl)acetyl)-1,5,6,7-tetrahydro-2H-pyrrolo[3,4-b]pyridin-2-one], for which the EC50 at rM4 receptors is greater than 1000 nM; on hM4 receptors, less than 50 nM.

As for `Cc1c2c(n(C)c(=O)c1F)CN(C(=O)CC1CN(c3ccnc(C(F)(F)F)c3)C1)C2` [Compound I-84, 3-Fluoro-1,4-dimethyl-6-(2-(1-(2-(trifluoromethyl)pyridin-4-yl)azetidin-3-yl)acetyl)-1,5,6,7-tetrahydro-2H-pyrrolo[3,4-b]pyridin-2-one], the EC50 on rM4 receptors is 50 to 200 nM; on hM4 receptors, less than 50 nM.

Values taken from US20260209220A1, “SUBSTITUTED TETRAHYDROPYRROLO-PYRIDINONE COMPOUNDS AND THEIR USE IN TREATING MEDICAL CONDITIONS” (Karuna Therapeutics, Inc., priority 2022, published 2026).
